Measured values reported in ChEMBL document CHEMBL4373740, “Synthesis and biological evaluation of new MET inhibitors with 1,6-naphthyridinone scaffold” (Eur J Med Chem, 2020).

Assays:
[1] = target: Vascular endothelial growth factor receptor 2 (Homo sapiens, UniProt P35968); assay: Inhibition of purified recombinant VEGFR2 kinase domain (unknown origin) using biotin as substrate preincubated for 5 mins followed by substrate addition and measured after 30 to 60 mins in presence of ATP by HTRF assay
HT-29 = assay: Antiproliferative activity against human HT-29 cells at 10 uM incubated for 72 hrs by MTT assay relative to control; assay type: functional; conditions: HT-29, 72 h
[2] = Antiproliferative activity against human NIH-H460 cells at 10 uM incubated for 72 hrs by MTT assay relative to control; assay type: functional; conditions: NIH-H460, 72 h
[3] = target: Hepatocyte growth factor receptor (Homo sapiens, UniProt P08581); assay: Inhibition of purified recombinant MET kinase domain (unknown origin) using biotin as substrate preincubated for 5 mins followed by substrate addition and measured after 30 to 60 mins in presence of ATP by HTRF assay
MKN-45 = assay: Antiproliferative activity against human MKN45 cells at 10 uM incubated for 72 hrs by MTT assay relative to control; assay type: functional; conditions: MKN-45, 72 h
Homo sapiens = species on record: Homo sapiens; assay: Selectivity index, ratio of IC50 for purified recombinant VEGFR2 kinase domain (unknown origin) to IC50 for purified recombinant MET kinase domain (unknown origin)
in vitro = conditions: human, liver microsomes

Sequence of Hepatocyte growth factor receptor (P08581 whole entry, the tested form may be a part): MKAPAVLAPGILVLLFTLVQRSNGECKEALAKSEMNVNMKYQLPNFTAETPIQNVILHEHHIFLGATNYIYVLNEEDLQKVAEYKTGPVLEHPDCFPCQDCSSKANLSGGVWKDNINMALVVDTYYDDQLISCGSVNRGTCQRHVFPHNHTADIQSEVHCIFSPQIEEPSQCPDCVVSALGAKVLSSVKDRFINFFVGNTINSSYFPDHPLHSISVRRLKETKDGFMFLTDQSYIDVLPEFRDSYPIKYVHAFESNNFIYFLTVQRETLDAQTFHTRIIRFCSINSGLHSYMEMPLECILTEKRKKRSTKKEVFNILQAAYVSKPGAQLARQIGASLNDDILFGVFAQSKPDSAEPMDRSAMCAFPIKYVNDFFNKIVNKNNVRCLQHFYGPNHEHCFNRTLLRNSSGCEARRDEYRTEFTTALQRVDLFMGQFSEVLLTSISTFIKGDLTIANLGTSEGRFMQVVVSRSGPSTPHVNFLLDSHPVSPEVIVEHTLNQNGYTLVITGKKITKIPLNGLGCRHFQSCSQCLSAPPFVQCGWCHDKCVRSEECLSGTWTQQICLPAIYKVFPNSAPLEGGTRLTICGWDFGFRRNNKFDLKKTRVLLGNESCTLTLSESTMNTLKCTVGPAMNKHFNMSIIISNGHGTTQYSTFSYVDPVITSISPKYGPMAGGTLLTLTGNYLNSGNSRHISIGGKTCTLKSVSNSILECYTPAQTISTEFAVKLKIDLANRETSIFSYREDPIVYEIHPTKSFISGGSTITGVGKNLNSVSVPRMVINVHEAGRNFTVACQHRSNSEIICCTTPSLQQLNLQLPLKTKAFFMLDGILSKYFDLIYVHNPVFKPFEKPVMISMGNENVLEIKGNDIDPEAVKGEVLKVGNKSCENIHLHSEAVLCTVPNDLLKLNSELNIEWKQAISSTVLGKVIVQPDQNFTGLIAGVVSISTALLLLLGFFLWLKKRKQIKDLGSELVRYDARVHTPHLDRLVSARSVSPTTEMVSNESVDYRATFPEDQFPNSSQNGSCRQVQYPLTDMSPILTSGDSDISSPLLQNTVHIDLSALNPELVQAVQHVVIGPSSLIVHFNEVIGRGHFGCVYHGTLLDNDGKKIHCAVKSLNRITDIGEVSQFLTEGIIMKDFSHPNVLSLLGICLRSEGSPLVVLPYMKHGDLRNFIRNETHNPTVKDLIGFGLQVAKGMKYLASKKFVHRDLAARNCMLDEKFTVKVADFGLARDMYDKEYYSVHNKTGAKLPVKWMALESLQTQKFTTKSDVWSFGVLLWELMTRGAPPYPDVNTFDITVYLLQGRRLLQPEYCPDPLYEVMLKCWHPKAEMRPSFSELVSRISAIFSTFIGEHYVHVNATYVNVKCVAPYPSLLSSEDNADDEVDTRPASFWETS
Sequence of Vascular endothelial growth factor receptor 2 (P35968 whole entry, the tested form may be a part): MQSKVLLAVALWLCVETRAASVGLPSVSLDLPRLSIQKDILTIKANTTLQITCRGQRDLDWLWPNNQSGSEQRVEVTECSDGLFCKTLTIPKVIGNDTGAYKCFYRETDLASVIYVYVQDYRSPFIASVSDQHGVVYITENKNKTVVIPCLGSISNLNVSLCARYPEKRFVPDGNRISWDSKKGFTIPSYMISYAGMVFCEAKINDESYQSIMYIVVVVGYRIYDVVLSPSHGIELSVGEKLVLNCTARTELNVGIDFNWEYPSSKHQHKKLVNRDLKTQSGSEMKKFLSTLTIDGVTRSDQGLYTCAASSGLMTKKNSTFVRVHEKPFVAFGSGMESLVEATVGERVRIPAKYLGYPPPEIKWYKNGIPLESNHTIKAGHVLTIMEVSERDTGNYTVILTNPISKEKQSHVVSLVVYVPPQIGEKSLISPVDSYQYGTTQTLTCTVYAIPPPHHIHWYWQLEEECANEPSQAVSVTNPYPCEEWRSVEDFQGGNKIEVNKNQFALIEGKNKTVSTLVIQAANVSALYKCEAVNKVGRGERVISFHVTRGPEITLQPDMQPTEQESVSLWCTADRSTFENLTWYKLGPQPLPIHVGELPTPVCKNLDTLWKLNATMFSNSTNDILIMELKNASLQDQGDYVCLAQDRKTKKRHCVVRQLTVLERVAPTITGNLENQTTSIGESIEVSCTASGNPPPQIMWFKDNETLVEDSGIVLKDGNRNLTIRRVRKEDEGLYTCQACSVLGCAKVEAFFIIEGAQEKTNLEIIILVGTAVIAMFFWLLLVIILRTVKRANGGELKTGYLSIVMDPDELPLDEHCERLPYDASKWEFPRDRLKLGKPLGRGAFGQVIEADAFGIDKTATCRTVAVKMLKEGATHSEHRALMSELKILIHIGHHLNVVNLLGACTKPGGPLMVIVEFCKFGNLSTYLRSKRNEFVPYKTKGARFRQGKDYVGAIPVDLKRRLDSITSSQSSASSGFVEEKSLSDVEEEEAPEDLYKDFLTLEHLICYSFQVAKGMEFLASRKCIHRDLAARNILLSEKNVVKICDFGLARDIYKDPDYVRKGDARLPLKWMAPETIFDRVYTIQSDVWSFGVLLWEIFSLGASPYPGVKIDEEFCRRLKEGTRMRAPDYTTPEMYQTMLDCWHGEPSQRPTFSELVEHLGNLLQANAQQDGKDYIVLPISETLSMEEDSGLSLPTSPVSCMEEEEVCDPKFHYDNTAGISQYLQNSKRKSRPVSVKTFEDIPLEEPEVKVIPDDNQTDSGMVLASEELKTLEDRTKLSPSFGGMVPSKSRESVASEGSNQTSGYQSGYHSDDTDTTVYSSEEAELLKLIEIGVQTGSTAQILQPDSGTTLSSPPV

For `O=C(Nc1cc(Oc2ccc(Nc3nccc4[nH]cc(-c5ccc(F)cc5)c(=O)c34)cc2F)ccn1)C1CCC1`, the IC50 [1] was 61.2 nM, the inhibition at 10 µM (HT-29) was 46% and the inhibition at 10 µM [2] was 43.6%. The IC50 [3] was 24 nM and the inhibition at 10 µM (MKN-45) was 52.8%.

Work on `CCCCC(=O)Nc1cc(Oc2ccc(Nc3nccc4[nH]cc(-c5ccc(F)cc5)c(=O)c34)cc2F)ccn1` yielded an IC50 [1] of 26.9 nM, an inhibition at 10 µM (HT-29) of -42.2% and an inhibition at 10 µM [2] of 71.8%. For the same compound, the IC50 [3] was 14.7 nM and the inhibition at 10 µM (MKN-45) was 62.7%.

In the case of `CCn1cc(-c2ccc(F)cc2)c(=O)c2c(Nc3ccc(Oc4ccnc(NC(=O)C5CC5)c4)c(F)c3)nccc21`, the Ratio IC50 (Homo sapiens) is reported as 88, the IC50 [1] is reported as 1380 nM and the inhibition at 10 µM (HT-29) is reported as 15.8%. For the same compound, the inhibition at 10 µM [2] was 11%, the IC50 [3] was 15.6 nM and the inhibition at 10 µM (MKN-45) was 31.9%.

In the case of `CC(C)(O)C(=O)Nc1cc(Oc2ccc(Nc3nccc4[nH]cc(-c5ccc(F)cc5)c(=O)c34)cc2F)ccn1`, the Ratio IC50 (Homo sapiens) is reported as greater than 85.7, the IC50 [1] is reported as greater than 3000 nM and the inhibition at 10 µM (HT-29) is reported as -2.9%. It also gave an inhibition at 10 µM [2] of 54.3%, an IC50 [3] of 35 nM and an inhibition at 10 µM (MKN-45) of 57.8%.

In the case of `CC(O)C(=O)Nc1cc(Oc2ccc(Nc3nccc4[nH]cc(-c5ccc(F)cc5)c(=O)c34)cc2F)ccn1` (stereo not given), the half-life (in vitro) is reported as 4.15 h, the IC50 [1] is reported as 289 nM and the inhibition at 10 µM (HT-29) is reported as 47.8%. The inhibition at 10 µM [2] was 56%, the IC50 [3] was 11.8 nM and the inhibition at 10 µM (MKN-45) was 67.3%.

`O=C(Nc1cc(Oc2ccc(Nc3nccc4c3c(=O)c(-c3ccc(F)cc3)cn4CCO)cc2F)ccn1)C1CC1` gave an IC50 [1] of 10500 nM, an inhibition at 10 µM (HT-29) of 3.5% and an inhibition at 10 µM [2] of 52.1%. The IC50 [3] was 33.8 nM and the inhibition at 10 µM (MKN-45) was 41.8%.

With `CC(C)(C)C(=O)Nc1cc(Oc2ccc(Nc3nccc4[nH]cc(-c5ccc(F)cc5)c(=O)c34)cc2F)ccn1` the Ratio IC50 (Homo sapiens) was greater than 107, the IC50 [1] was greater than 3000 nM and the inhibition at 10 µM (HT-29) was -45.8%. The inhibition at 10 µM [2] was 56.7%, the IC50 [3] was 28.1 nM and the inhibition at 10 µM (MKN-45) was 62.5%.

`CCCC(=O)Nc1cc(Oc2ccc(Nc3nccc4[nH]cc(-c5ccc(F)cc5)c(=O)c34)cc2F)ccn1` showed an IC50 [1] of 19.4 nM, an inhibition at 10 µM (HT-29) of 23.5% and an inhibition at 10 µM [2] of 49.7%. The IC50 [3] was 14.8 nM and the inhibition at 10 µM (MKN-45) was 64.6%.

Work on `CCC(=O)Nc1cc(Oc2ccc(Nc3nccc4[nH]cc(-c5ccc(F)cc5)c(=O)c34)cc2F)ccn1` yielded a half-life (in vitro) of 2.72 h, an IC50 [1] of 20.2 nM and an inhibition at 10 µM (HT-29) of 68.7%. It also gave an inhibition at 10 µM [2] of 69.7%, an IC50 [3] of 4.7 nM and an inhibition at 10 µM (MKN-45) of 92.1%.
